In patent US20110212100A1, “METHODS FOR MODULATING DEVELOPMENT AND EXPANSION OF IL-17 EXPRESSING CELLS” (priority 2007, published 2011):
“And” between values parts separate entries of the source, which are not always exact repeats. Equal values may be shown once.

Legend:
[1] = tested on: CD4+ CD25− T cells; experiment: CD4+ T cell proliferation, CD25 upregulation, cytokine production and Th1/Th2/iTreg differentiation; assay type: cell-based, mouse
Protocol: (§1) The dose-response of HF on CD4+ T cell proliferation, activation (i.e. CD25 upregulation) and differentiation to Th1, Th2 and Th17 lineages were evaluated. Purified murine naïve CD4+ CD25− T cells were activated using anti-CD3 (0.3 μg/ml) and anti-CD28 (0.5 μg/ml) antibodies and varying amounts of HF was added to each T cell culture condition (1.25 nM-40 nM). CD4+ T cell proliferation was monitored by CFSE dilution on day 3-post activation and CD25 expression was evaluated by FACS staining 2 days after activation. For T cell differentiation experiments, naïve T cells were activated as above in the presence of Th1 (IL-12 (20 ng/ml) plus anti-IL-4 (10 μg/ml)), Th2 (IL-4 (50 ng/ml) plus anti-IFNγ (0.5 mg/ml)) or Th17 (TGFβ (3 ng/ml) plus IL-6 (30 ng/ml)) polarizing conditions plus titrating amounts of HF (1.25 nM-40 nM) or MAZ1310 (40 nM). The percentage of Th17 cells, (IL-17^+ IFNγ^−) was evaluated on day 3 following activation, whereas the abundance of Th1 cells (IFNγ^+ IL-4) and Th2 cells (IL-4^+ IFNγ^−) was determined 5 days following activation. All cytokine expression was determined by intracellular staining following PMA+Ionomycin+Brefeldin A re-stimulation and all data was normalized to control (MAZ1310)-treated cells. […] Biol., vol. 80:1-8 (2006).
(§2) Cytokines, antibodies and T cell culture: Purified CD4^+ CD25^− T cells were activated in vitro as previously described (I. M. Djuretic et al., Nat Immunol 8, 145 (2007)) using 0.3 μg/ml hamster anti-mouse CD3 (clone 145-2C11) (ATCC—Manassas, Va.) and 0.5 μg/ml hamster anti-mouse CD28 (BD Pharmingen, San Jose, Calif.). Activated cell cultures were differentiated using the following combinations of cytokines and antibodies: iTreg=recombinant human TGFβ1 (3 ng/ml; R&D systems, Minneapolis, Minn.), Th17βTGFβ1 (3 ng/ml) plus recombinant mouse IL-6 (30 ng/ml, R&D systems). Th1 and Th2 differentiation was performed as previously described. (I. M. Djuretic et al., Nat Immunol 8, 145 (2007)). Human IL-2 supernatant (National Cancer Institute) was used in culture at 0.01 U/ml and was added at 48 hours-post activation when T cells were split into tissue culture wells lacking CD3 and CD28 antibodies, with the exception of Th17 cultures that were maintained in the absence of IL-2. All reagents were added at the time of T cell activation and again at 48-hours post activation unless indicated otherwise. For some experiments, purified CD4^+ CD25^− T cells, CD8^+ T cells or B cells were labeled with 1 μM CFSE (Invitrogen) prior to activation in accordance with manufacturers instructions.
Detection of cytokine production: Cytokines secreted into media supernatant were measured using the mouse Th1/Th2 cytometric bead array (CBA, BD Pharmingen) in accordance with manufacturers instructions. […]

[2] = tested on: Th17 differentiation of CD4+ CD25− T cells; experiment: Th17 differentiation (IL-17+ IFNγ− cells) of T cells activated with TGFβ plus IL-6; assay type: cell-based, mouse
Protocol: Low doses of halofuginone (HF) were tested to determine the ability of HF to enhance Treg differentiation, while suppressing Th17 differentiation. Nave. CD4+ T cells (CD4+ CD25−) were isolated from the spleen and peripheral lymph nodes of C57B/6 mice. T cells were then activated using anti-CD3 (0.3 μg/ml) and anti-CD28 (0.5 μg/ml) antibodies either in media alone (row 1, 4), TGFβ alone (3 ng/ml—row 2, 5) or TGFβ (3 ng/ml) plus IL-6 (30 ng/ml) (row 3, 6). […] T cells were cultured for 3 days and CD25 and Foxp3 expression (Treg marker genes) was determine by FACS staining and flow cytometric analyses. Simultaneously, T cells were harvested and re-stimulated for 4 hours using phorbol myristic acetate (PMA; 10 nM), Ionomycin (1 μM) and cytokine secretion was prevented using brefeldin A (20 μg/ml). Following stimulation, the production of IL-17 and IFNγ were determined by intracellular staining and analyzed via flow cytometry.
as §1, §2
Detection of cytokine production: Cytokines secreted into media supernatant were measured using the mouse Th1/Th2 cytometric bead array (CBA, BD Pharmingen) in accordance with manufacturers instructions.

[3] = tested on: cultured fibroblasts; experiment: Non-specific effects on cultured fibroblasts; assay type: cell-based
Protocol: At concentrations over 80 nM, HF has a variety of non-specific effects on both T-cells and fibroblasts. […] At the recommended tolerated dose for chronic treatment (0.5 mg/day), plasma levels of HF were ˜0.5 ng/ml (1 nM). (de.Jonge et al., Eur J Cancer, vol. 42(12):1768-74 (2006)).

O=C(CC1NCCCC1O)Cn1cnc2cc(Br)c(Cl)cc2c1=O (racemic) [HF, 7-bromo-6-chloro-3-[3-(3-hydroxy-2-piperidinyl)-2-oxopropyl]-4(3H)-quinazolinone]
concentration inducing general inhibition of T and B cell activation, proliferation and effector function ([1]; CD4+ T cell, CD8+ T cell and B220+ B cell, listed as halofuginone): 20 to 40 nM
effect on T cell proliferation, CD25 upregulation or production of IL-2, TNF or IFNγ, in words ([1]; low concentrations of HF (1-10 nM)): did not affect
effect on Th1, Th2 or iTreg differentiation (IFNγ, IL-4 or Foxp3 expression), in words ([1]; low-dose HF): failed to modulate
time of addition giving most pronounced inhibition of IL-17 expression, in words ([2]; 10 nM HF added at indicated times after activation): most pronounced when HF was added during a 12-hour window at the start of the culture period
effect on Il17 and Il17f mRNA expression, in words ([2]; 10 nM HF, 4 days, Th17 cytokine conditions): impaired expression of both Il17 and Il17f mRNA
IL-17 expression in T cells lacking Foxp3, in words ([2]; 10 nM HF, Foxp3 KO naïve CD4+ T cells, TGFβ plus IL-6): strongly repressed IL-17 expression
Th17 differentiation of T cells expressing STAT3C, in words ([2]; 10 nM HF, STAT3C-GFP+ cells): remained capable of differentiating into Th17 cells
Th17 differentiation of cells expressing YFP or no transgene, in words ([2]; 5-10 nM HF, TAT-Cre treated T cells): strongly impaired
fold lower doses for effects on Th17 differentiation versus general inhibition of T-cell proliferation and Th1/Th2 differentiation ([2]; FIG. 7): 5- to 10 fold and ~10 fold
Th17 differentiation in T cells transduced with RORγt-expressing versus empty retroviruses, in words ([2]; MIG.RORγt vs MIG): inhibited Th17 differentiation as effectively
IC50 ([2]; Mus musculus, T-cell, in vitro, read-out: concentration for 50% inhibition of Th17 cell development): ~3 nM
concentration window of specific inhibition of Th17 differentiation ([2]; exogenously added HF, TGFbeta in the presence of IL-6): 2 to 30 nM
concentration inhibiting protein synthesis and cell proliferation in fibroblast culture [3]: over 80 nM
signaling downstream of mTOR in fibroblasts, in words [3]: did not inhibit signaling downstream of mTOR
death of cultured fibroblasts, in words ([3]; doses up to 500 nM over 5 days): does not, however, cause death
